Assays:
[1] = molecular target: T1, Phenylethanolamine N-methyltransferase (Bos taurus, UniProt P10938); assay: In vitro inhibitory activity against bovine phenylethanolamine N-methyl-transferase
T1 sequence (P10938 whole entry): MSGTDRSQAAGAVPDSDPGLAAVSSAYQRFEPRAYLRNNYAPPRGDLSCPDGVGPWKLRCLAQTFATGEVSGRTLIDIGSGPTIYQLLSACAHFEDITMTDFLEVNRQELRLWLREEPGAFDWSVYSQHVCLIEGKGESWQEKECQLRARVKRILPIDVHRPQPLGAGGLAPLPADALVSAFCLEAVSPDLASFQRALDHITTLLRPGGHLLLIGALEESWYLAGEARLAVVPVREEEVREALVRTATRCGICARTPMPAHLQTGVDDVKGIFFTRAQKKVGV

[2] = molecular target: T1, Phenylethanolamine N-methyltransferase; assay: The compound was tested for In vitro inhibitory activity against Phenylethanolamine N-Methyltransferase (PNMT)
[3] = molecular target: T1, Phenylethanolamine N-methyltransferase; assay: In vitro inhibitory activity against Phenylethanolamine N-methyl-transferase (PNMT)

Structure (SMILES) | Ki [1] | further results
NC1CC2CC1c1cccc(O)c12 (stereo unspecified) | > 10000 µM | –
COc1ccc2c(c1)C1CC2CC1N (stereo unspecified) | > 2000 µM | –
NC12CCC(C1)c1ccccc1C2 (stereo unspecified) | 206 µM | –
NC1CCc2cccc(O)c2C1 (stereo unspecified) | 39 µM | –
NC1CC2CC1c1ccc(O)cc12 (stereo unspecified) | 304 µM | –
COc1ccc2c(c1)CCC(N)C2 (stereo unspecified) | 34 µM | –
N[C@@H]1CC2CC1c1c(O)cccc12 (stereo partly specified) | > 3000 µM | –
NC1CCc2c(O)cccc2C1 (stereo unspecified) | 21 µM | –
NC1CC2CC1c1ccccc12 (stereo unspecified) | 479 µM | –
NC1CCc2ccccc2C1 (stereo unspecified) | 6.8 µM | –
NCCc1ccccc1 [PHENETHYLAMINE] | 854 µM | –
COc1cccc2c1CCC(N)C2 (stereo unspecified) | 157 µM | –
NC12CCC(C1)c1ccc(O)cc1C2 (stereo unspecified) | 1270 µM | –
NC1CCc2cc(O)ccc2C1 (stereo unspecified) | 4.7 µM | –
NCCc1cccc(O)c1 | – | Ki [2]: 1250 µM
NC12CCC(C1)c1cc(O)ccc1C2 (stereo unspecified) | 111 µM | –
COc1cccc2c1CC(N)CC2 (stereo unspecified) | 144 µM | –
NCCc1ccc(O)cc1 [TYRAMINE] | – | Ki [2]: 294 µM
NC12CCC(C1)c1c(O)cccc1C2 (stereo unspecified) | 3470 µM | –
COc1cccc2c1C1CCC(N)(C2)C1 (stereo unspecified) | 8420 µM | –
COc1ccc2c(c1)CC(N)CC2 (stereo unspecified) | 228 µM | –
COc1cccc2c1C1CC(N)C2C1 (stereo unspecified) | > 2000 µM | –
COc1ccc2c(c1)C1CCC(N)(C2)C1 (stereo unspecified) | 389 µM | –
COc1cccc2c1C1CC2CC1N (stereo unspecified) | > 2000 µM | –
NC1CCc2ccc(O)cc2C1 (stereo unspecified) | – | Ki [3]: 76 µM
COc1ccc2c(c1)CC1(N)CCC2C1 (stereo unspecified) | 1410 µM | –

From ChEMBL document CHEMBL1124404, “Conformationally restricted and conformationally defined tyramine analogues as inhibitors of phenylethanolamine N-methyltransferase” (J Med Chem, 1989)
